Data reported in PubChem BioAssay AID2074 (Sanford-Burnham Center for Chemical Genomics, 2009).

Molecular target: Dual specificity protein phosphatase 3 (Homo sapiens) (UniProt P51452)
Test: Biochemical DiFMUP fluorescent assay for VHR phosphatase inhibition, SAR follow up (AID 2074)
Details: recombinant VHR phosphatase, DiFMUP fluorescence

Chain of Dual specificity protein phosphatase 3 (Homo sapiens) (P51452 whole entry, looked up): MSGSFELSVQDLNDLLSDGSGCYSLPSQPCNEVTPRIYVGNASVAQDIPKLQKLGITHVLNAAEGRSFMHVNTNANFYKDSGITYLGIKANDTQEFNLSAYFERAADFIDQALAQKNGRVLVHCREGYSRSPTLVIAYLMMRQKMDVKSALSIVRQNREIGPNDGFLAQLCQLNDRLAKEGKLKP

Row | Structure (SMILES) | IC50 [µM]
1 | O=C1/C(=C/c2cn(-c3ccccc3)nc2-c2ccc(S(=O)(=O)N3CCOCC3)cc2)SC(=S)N1CCS(=O)(=O)O | 2.4
2 | O=C1/C(=C/c2cn(-c3ccccc3)nc2-c2ccc(OCc3ccccc3)cc2)SC(=S)N1CCS(=O)(=O)O | 0.078
3 | Cc1ccc(-c2nn(-c3ccccc3)cc2/C=C2\SC(=S)N(CCS(=O)(=O)O)C2=O)cc1 | 3.1
4 | O=C1/C(=C/c2cn(-c3ccccc3)nc2-c2ccc(OCc3ccc(Cl)cc3)cc2)SC(=S)N1CCS(=O)(=O)O | 0.018
5 | O=C1/C(=C/c2cn(-c3ccccc3)nc2-c2ccc(OCc3ccccc3Cl)cc2)SC(=S)N1CCS(=O)(=O)O | 0.071
6 | O=C1/C(=C/c2cn(-c3ccccc3)nc2-c2ccc(Cl)cc2)SC(=S)N1CCS(=O)(=O)O | 1.8
7 | COc1ccc(-c2nn(-c3ccccc3)cc2/C=C2\SC(=S)N(CCS(=O)(=O)O)C2=O)cc1 | 1.8
